Data taken from patent publication US6107292A, “Indenoindoles and benzocarbazoles as estrogenic agents” (American Home Products Corporation, priority 2000, dated 2000).

Assays:
human estrogen receptor = target: T1, human estrogen receptor (Homo sapiens, UniProt P03372); assay: 2×VIT ERE Infection Assay (luciferase); format: cell-based; conditions: CHO, 24 h; for Emax at 1 µM: read-out: Infection Luciferase Activity, 1 uM; for activity at 1 µM: read-out: Infection Luciferase Activity, 1 uM + 17β estradiol
T1 construct: expressed in transfected cells; host or cells: Chinese Hamster Ovary (CHO) cells, stably transfected
Protocol: Chinese Hamster Ovary cells (CHO) which had been stably transfected with the human estrogen receptor were maintained in DMEM+10% fetal bovine serum (FBS). 48h prior to treatment the growth medium was replaced with DMEM lacking phenol red+10% dextran coated charcoal stripped FBS (treatment medium). Cells were plated at a density of 5000 cells/well in 96-well plates containing 200 μL of medium/well.
Reporter DNA (Promega plasmid pGL2 containing two tandem copies of the vitellogenin ERE in front of the minimal thymidine kinase promoter driving the luciferase gene) was combined with the B-galactosidase expression plasmid pCH 110 (Pharmacia) and carrier DNA (pTZ18U) in the following ratio:
20 uG of DNA1 mL of transfection solution
The DNA (20uG) was dissolved in 500 uL of 250 mM sterile CaCl2 and added dropwise to 500 uL of 2×HeBS (0.28 M NaCl, 50 mM HEPES, 1.5 mM Na2 HPO4, pH 7.05) and incubated at room temperature for 20 minutes. 20 uL of this mixture was added to each well of cells and remained on the cells for 16 h. […] Each treatment condition was performed on 8 wells (n=8) which were incubated for 24 h prior to the luciferase assay.
After 24 h exposure to compounds, the media was removed and each well washed 2× with 125 uL of PBS lacking Mg^++ and Ca^++. After removing the PBS, 25 uL of Promega lysis buffer was added to each well and allowed to stand at room temperature for 15 min, followed by 15 min at -80° C. and 15 min at 37° C. 20 uL of lysate was transferred to an opaque 96 well plate for luciferase activity evaluation and the remaining lysate (5 uL) was used for the B-galactosidase activity evaluation (normalize transfection). The luciferan substrate (Promega) was added in 100 uL aliquots to each well automatically by the luminometer and the light produced (relative light units) was read 10 seconds after addition.
To the remaining 5 uL of lysate 45 uL of PBS was added. Then 50 uL of Promega B-galactosidase 2× assay buffer was added, mixed well and incubated at 37° C. for 1 hour. A plate containing a standard curve (0.1 to 1.5 milliunits in triplicate) was set up for each experimental run. The plates were analyzed on a Molecular Devices spectrophotometric plate reader at 410 nm. The optical densities for the unknown were converted to milliunits of activity by mathematical extrapolation from the standard curve.
The luciferase data was generated as relative light units (RLUs) accumulated during a 10 second measurement and automatically transferred to a JMP (SAS Inc) file where background RLUs were subtracted. The B-galactosidase values were automatically imported into the file and these values were divided into the RLUs to normalize the data. The mean and standard deviations were determined from a n=8 for each treatment.

estrogen receptor = target: T2, estrogen receptor (Homo sapiens, UniProt P03372); assay: In vitro Estrogen Receptor Binding Assay; conditions: comparison / general statement in words
T2 construct: made in house; host or cells: CHO cells overexpressing the receptor; 100,000 g cytosol
T2 sequence (P03372 1-595): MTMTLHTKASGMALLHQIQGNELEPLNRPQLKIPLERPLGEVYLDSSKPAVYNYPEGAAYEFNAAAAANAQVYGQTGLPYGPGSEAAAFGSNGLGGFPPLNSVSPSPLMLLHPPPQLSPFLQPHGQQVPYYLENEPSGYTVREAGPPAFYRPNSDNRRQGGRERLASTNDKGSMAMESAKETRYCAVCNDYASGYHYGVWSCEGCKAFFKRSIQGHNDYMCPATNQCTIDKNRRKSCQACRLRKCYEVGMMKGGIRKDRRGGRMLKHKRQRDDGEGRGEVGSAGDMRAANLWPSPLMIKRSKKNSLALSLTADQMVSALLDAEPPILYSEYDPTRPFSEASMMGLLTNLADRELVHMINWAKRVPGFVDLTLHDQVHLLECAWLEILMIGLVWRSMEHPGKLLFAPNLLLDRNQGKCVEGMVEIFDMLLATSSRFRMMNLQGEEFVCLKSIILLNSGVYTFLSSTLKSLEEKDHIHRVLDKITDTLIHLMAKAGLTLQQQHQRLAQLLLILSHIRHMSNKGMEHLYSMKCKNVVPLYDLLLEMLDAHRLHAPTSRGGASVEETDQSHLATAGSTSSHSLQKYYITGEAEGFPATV
Protocol: CHO cells overexpressing the estrogen receptor were grown in 150 mm^2 dishes in DMEM+10% dextran coated charcoal, stripped fetal bovine serum. The plates were washed twice with PBS and once with 10 mM Tris-HCl, pH 7.4, 1 mM EDTA. Cells were harvested by scraping the surface and then the cell suspension was placed on ice. Cells were disrupted with a hand-held motorized tissue grinder using two, 10-second bursts. The crude preparation was centrifuged at 12,000 g for 20 minutes followed by a 60 minute spin at 100,000 g to produce a ribosome free cytosol. The cytosol was then frozen and stored at -80° C. Protein concentration of the cytosol was estimated using the BCA assay with reference standard protein.
The competition assay was performed in a 96-well plate (polystyrene*) which binds <2.0% of the total input [^3 H]-17β-estradiol and each data point was gathered in triplicate. 100 uG/100 uL of the receptor preparation was aliquoted per well. A saturating dose of 2.5 nM [^3 H] […] Samples were counted to 2% or 10 minutes, whichever occurs first. […] Also, wells containing radioactivity but no cytosol were processed with charcoal to estimate unremovable DPM of [^3 H] […]
Counts per minute (CPM) of radioactivity were automatically converted to disintegrated per minute (DPM) by the Beckman LS 7500 Scintillation Counter using a set of quenched standards to generate a H# for each sample. […]

uterus [1] = conditions: ovariectomized rat; versus Tamoxifen; cited from earlier work
bone [2] = conditions: ovariectomized rat; cited from earlier work
uterus [3] = conditions: in vivo; cited from earlier work
bone [4] = conditions: humans; cited from earlier work

SMILES	Emax at 1 µM (human estrogen receptor)	activity at 1 µM (human estrogen receptor)	binding to the ER receptor (in words) (estrogen receptor)	further results
COc1ccc2c(c1)Cc1c-2n(Cc2ccc(OCCN3CCCCC3)cc2)c2ccc(O)cc12 [Example 4, 2-Methoxy-5-[4-(2-piperidin-1-yl-ethoxy)-benzyl]-5,10-dihydro-indeno[1,2-b]lindol-8ol]	-2%	83%		
COc1ccc2c(c1)CCc1c-2n(Cc2ccc(OCCN3CCCCC3)cc2)c2ccc(O)cc12 [Example 13, 3-Methoxy-11-[4-(2-piperidin-1-yl-ethoxy)-benzyl]-5,11-dihydro-6H-benzof[a]carbazol-8-ol]	-7%	1%	bind better to the ER receptor than the indenoindole #6	
COc1ccc2c(c1)CCc1c-2n(Cc2ccc(OCCN3CCCCCC3)cc2)c2ccc(O)cc12 [Example 14, 11-[4-(2-Azepan-1-yl-ethoxy)-benzyl]-3-methoxy-5,11-dihydro-6H-benzo[a]carbazol-8-ol]	1%	8%	bind better to the ER receptor than the indenoindole #6	
O=C(c1ccc(OCCN2CCCCC2)cc1)c1c(-c2ccc(O)cc2)sc2cc(O)ccc12 [Raloxifene]				uterine growth (uterus [1]): stimulate uterine growth in the ovariectornized rat to a lesser extent than Tamoxifen; ability to spare bone / bone mass (bone [2]): maintaining the ability to spare bone
CC/C(=C(\c1ccccc1)c1ccc(OCCN(C)C)cc1)c1ccccc1 [tamoxifen]				agonism in the uterus (uterus [3]): partial agonist in the uterus; effect on the bone (bone [4]): estrogen agonist-like effect on the bone
